Measurements: US12709738B2, “Compositions and methods for increasing the culture density of a cellular biomass within a cultivation infrastructure” (The Upside Group Inc., priority 2017, dated 2026)

Assays:
Assay type in all cases: cell-based
Bovine myoblasts [1] = experiment: Proliferation rate by EdU incorporation (FACS) after LPA; conditions: 10 μM LPA, 24 hours; compared to vehicle-treated cells; FIG. 5
Method: In another experiment, bovine myoblasts were plated at a culture density of 10,000 cells per well in a 96 well plate in triplicate wells. The cells were allowed to adhere for 24 hours, when 10 μM LPA was added in the medium. Cells were subsequently harvested. After 24 hours, the proliferation rate was measured by EdU incorporation using a commercially available nucleoside pulse labeling kit such as the Click-iT-EdU kit (ThermoFisher). Briefly, cells were treated with 3 μM EdU, incubated at room temperature for 6 hours and detected according to the manufacturer's instructions, Cells were labeled with Alexa Fluor® 647 azide and analyzed using Fluorescence-Activated Cell Sorting (FACS) using 633 nm excitation and a 660/20 nm emission filter.

Bovine myoblasts [2] = experiment: Differentiation to mature muscle cells by myogenin immunostaining; conditions: LPA 10 or 25 μM added daily in serum-free medium
Method: Isolated bovine myoblasts were plated in a culture medium without adding serum at a culture density of 10,000 cells per well in a 96 well plate in triplicate wells. The cells were allowed to adhere for 24 hours, when LPA was added at a concentration of 0, 10 or 25 μM in serum-free medium. LPA was added daily until harvesting. Myogenin was used as a marker of differentiation to mature muscle cells. To determine the degree of differentiation to mature muscle cells, cultures were fixed in 4% paraformaldehyde for 10 min and then washed with PBS. Cells were incubated with PBS/0.2% BSA/0.1% Triton-X100 for 20 min followed by incubation with an anti-myogenin antibody (Abcam, mouse, 1/150) for 1 h at room temperature. After 3 washes with PBS/0.2% BSA, cells were incubated with secondary antibodies (goat anti-rabbit Alexa488, 1/800; goat anti-mouse Alexa555, 1/800, Invitrogen) for 30 min at room temperature. Nucleus was stained with DAPI.

Bovine myoblasts [3] = experiment: Cell count by bright field cell imaging after LPA, subconfluent and confluent cultures; conditions: 96 well plate, LPA 0, 10 or 25 μM
Method: Bovine myoblasts were isolated from a bovine skeletal muscle tissue using the protocol described above. Isolated myoblasts were plated at a culture density of 2000 (subconfluent) or 10,000 (confluent) cells per well in a 96 well plate in triplicate wells. The cells were allowed to adhere for 24 hours, at which time LPA was added at a concentration of 0, 10 or 25 μM in the medium. Cells were subsequently harvested and counted by bright field cell imaging (Cytation 5 live cell imaging, analyzed with Lionheart software). […] Data shown are mean+/−SD. Significance was determined by the Student's T test.

## lysophosphatidic acid [LPA]
Bovine myoblasts [1]
  increase in percentage of cells in the S-phase: 216%
Bovine myoblasts [2]
  expression of myogenin (marker of differentiation): reduced expression of myogenin
Bovine myoblasts [3]; 2000 cells per well, FIG. 4A
  increase of cells in the subconfluent culture: 309%
Bovine myoblasts [3]; 10,000 cells per well, FIG. 4B
  increase of cells in the confluent culture: 130%
